Test results taken from patent US8530486B2, “Quinazolines and related heterocyclic compounds, and their therapeutic use” (Vereniging Voor Christelijk Hoger Onderwijs, …, priority 2008, dated 2013).

Target: T1, human H4 receptor (Homo sapiens, UniProt Q9H3N8)
T1 construct: expressed in transfected cells; host or cells: HEK 293T cells, transient transfection with polyethyleneimine
Assay: [3H]Histamine binding assay (radioligand displacement at the human H4 receptor)
Details: [3H]histamine displacement, membranes of HEK 293T cells transfected with human H4R; read-out: Activity Class* (Ki in H4 binding assay)

Row | SMILES | Ki [nM]
1 | CN1CCN(c2nc(NCCS(=O)(=O)Nc3ccccc3)c3cc(Cl)cc(Cl)c3n2)CC1 [Example 14] | < 1000
2 | CN1CCN(c2nc(NCCS(=O)(=O)Nc3ccccc3)c3ccc(Cl)c(Cl)c3n2)CC1 [Example 16, 2-(7,8-dichloro-2-(4-methylpiperazin-1-yl)quinazoline-4-amino)-N-phenylethanesulfonamide] | < 1000
3 | CN1CCN(c2nc(NCCS(=O)(=O)Nc3ccccc3)c3c(Cl)cc(Cl)cc3n2)CC1 [Example 17, 2-(5,7-dichloro-2-(4-methylpiperazin-1-yl)quinazoline-4-amino)-N-phenylethanesulfonamide] | < 1000

The next lines start with the values.

Row | Ki [nM] | SMILES
4 | < 1000 | CN1CCN(c2nc(NCCS(=O)(=O)Nc3ccc(I)cc3)c3cc(Cl)ccc3n2)CC1 [Example 8, 2-(6-chloro-2-(4-methylpiperazin-1-yl)quinazoline-4-amino)-N-(4-iodophenyl)ethanesulfonamide]
5 | < 1000 | CN1CCN(c2nc(NCCS(=O)(=O)Nc3ccccc3)c3cc(Cl)c(Cl)cc3n2)CC1 [Example 12, 2-(6,7-dichloro-2-(4-methylpiperazin-1-yl)quinazoline-4-amino)-N-phenylethanesulfonamide]
